Assay results published in US11352350B2, “IRAK degraders and uses thereof” (Kymera Therapeutics, Inc., priority 2018, dated 2022).
pIC50: −log10 of the molar value. Like-named read-outs stand apart in the source and are kept apart here.

Columns and labels:
IRAK4 = IRAK4 (Homo sapiens (Human), UniProt Q9NWZ3); experiment: IRAK4 degradation in human whole blood monocyte - flow cytometry; format: cell-based; conditions: read-out: IRAK4 degradation in whole blood monocyte-Flow cytometry: Average external Abs IC50
Method in brief: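 Fresh heparinized human whole blood dosed (10-point, 5-fold, 0.1% DMSO) for 20 h or 4 h at 37 °C, then fixed, stained and IRAK4 MFI quantified by flow in CD14+ monocytes and CD14− lymphocytes. DC50 and Dmax via 4-parameter logistic fit normalized to DMSO and 10 μM control.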

OCI-LY10 = OCI-LY10 viability, CTG; format: cell-based; conditions: for pIC50: Homo sapiens, OCI-Ly10
TNFα = experiment: Human PBMC LPS TNFα assay; format: cell-based; conditions: hPBMC, LPS stimulation, read-out: IRAK4 hPBMC LPS TNF-α inhibition: Average external-IC50
Procedure: Human PBMC LPS TNFα assay. Frozen PBMCs were thawed into RPMI with 10% FBS/1% penicillin/streptomycin and same day plated into 96 well plates at 200,000 PBMC/[…] media per well. Compound plates were prepared in DMSO with D300 cassette as 8-point dose curves in duplicate, starting dose 2 μM, 5-fold. Compounds are added 200 nL into cells for final 200 μL per well. Compound and cells were incubated at 37° C., 5% CO2 for 20 hours. After twenty hours of pretreatment with the compounds, LPS (01 1 1:B4) (Sigma #L2637) was added at 100 ng/ml final concentration and PBMCs incubated an additional five hours at 37° C., 5% CO2. Following assay completion, PBMC plates were spun down at 2000 rpm for 10 minutes. 100 uL of supernatant was carefully removed and placed into a new 96 well Costar (#3879) plate and stored at −80° C. until further analysis. Meso scale Discovery (MSD) human V-plex assays were used to measure cytokine levels. On day of cytokine analysis, supernatant samples were thawed, diluted with V-plex diluent #2, and directly to MSD plates. Assay was further completed per standard manufacturer's protocol. Cytokine data was normalized to LPS stimulated and unstimulated controls. Prism Graphpad was used to generate IC50 using 4 parameter logistic regression curve, free-fit.

OCI-LY10 tumor cells = experiment: OCI-LY10 large B lymphoma xenograft model in C.B. 17 SCID mice; format: in vivo, mouse
Procedure: Cell Culture: The OCI-LY10 or TMD8 tumor cells were maintained as suspension in RPMI1640 medium supplemented with 10% fetal bovine serum, 100 U/mL penicillin and 100 μg/mL streptomycin at 37° C. in an atmosphere of 5% CO2 in air. The tumor cells were routinely subcultured twice weekly by trypsin-EDTA treatment. The cells growing in an exponential growth phase were harvested and counted for tumor inoculation.
Animals: C.B. 17 SCID, female, 6-8 weeks, weighing approximately 16-18 g were used. Animals were housed and maintained according to IACUC protocols.
Tumor Inoculation: Each mouse was inoculated subcutaneously at the right flank with OCI-LY10 or TMD8 tumor cells (10×10^6) in 0.2 mL of PBS with matrigel for tumor development. The treatments were started when the tumor sizes reached approximately 150-450 mm^3 for the studies.
Assignment to Groups: Before commencement of treatment, all animals were weighed and the tumor volumes were measured. Since the tumor volume can affect the compound PK/PD, mice are assigned into groups using an Excel-based randomization procedure performing stratified randomization based upon their tumor volumes.
Observation: After tumor inoculation, the animals were checked daily for morbidity and mortality. During routine monitoring, the animals were checked for any effects of tumor growth and treatments on behavior such as mobility, food and water consumption, body weight gain/loss, eye/hair matting and any other abnormalities. Mortality and observed clinical signs were recorded for individual animals in detail.
Data Collection: Tumor volumes were measured in two dimensions using a caliper, and the volumes were expressed in mm^3 using the formula: “V=(L×W×W)/2, where V is tumor volume, L is tumor length (the longest tumor dimension) and W is tumor width (the longest tumor dimension perpendicular to L).
At termination: At pre-determined time points based on study design, animals were humanely sacrificed by CO2. Blood was obtained by cardiac puncture for isolation of plasma, any residual tumor was removed and divided in 2 portions, 1 (minimal) for terminal compound exposure and 1 to determine IRAK4 and actin. Compound was determined in tumor and plasma using LC/MS with calibrated standards.

Chain of IRAK4 (Q9NWZ3 whole entry): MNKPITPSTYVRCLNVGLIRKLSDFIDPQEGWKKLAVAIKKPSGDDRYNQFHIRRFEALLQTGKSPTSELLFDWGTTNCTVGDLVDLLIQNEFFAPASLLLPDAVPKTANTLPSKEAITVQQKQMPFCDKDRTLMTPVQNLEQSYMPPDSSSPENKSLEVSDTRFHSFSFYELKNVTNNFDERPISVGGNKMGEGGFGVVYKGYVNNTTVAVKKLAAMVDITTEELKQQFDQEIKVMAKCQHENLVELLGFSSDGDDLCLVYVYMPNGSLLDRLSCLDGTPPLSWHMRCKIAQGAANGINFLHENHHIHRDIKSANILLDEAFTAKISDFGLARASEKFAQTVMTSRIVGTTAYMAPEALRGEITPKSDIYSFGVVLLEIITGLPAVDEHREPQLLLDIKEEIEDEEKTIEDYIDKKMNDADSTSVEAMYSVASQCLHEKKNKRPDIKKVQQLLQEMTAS

Row | Structure (SMILES) | pIC50 (IRAK4) | Cell Titer Glo assay, combination effect (OCI-LY10; combination of ibrutinib and degrader I-30 (FIG. 12B)) | pIC50 (TNFα) | antitumor effect in OCI-LY10 xenograft (OCI-LY10 tumor cells; FIG. 6 A-C) | in vivo tumor growth inhibition, combination with ibrutinib (OCI-LY10 tumor cells; OCI-LY10 (MYD88 L265P, CD79 mutant), combination of I-30 and ibrutinib at sub-optimal single agent concentrations, FIG. 13) | in vivo tumor growth of implanted OCI-LY10 (MYD88 mutant) cells (OCI-LY10 tumor cells; PO BID administration, FIG. 7) | DC50 (IRAK4) [nM] | pIC50 (OCI-LY10; MYD88 MUT, read-out: OCI-LY10 CTG IC50) | pIC50 (OCI-LY10; MYD88 Mutant Lines, read-out: OCI-LY10 Viability, CTG IC50) | antitumor activity against OCI-LY10, oral dosing (OCI-LY10 tumor cells; xenograft-bearing mice, FIG. 14)
1 | CN(CCCOCCCc1cccc2c1n(C)c(=O)n2C1CCC(=O)NC1=O)C[C@H]1CC[C@H](n2cc(NC(=O)c3coc(-c4ccnc(NCC5CC5)c4)n3)c(C(F)F)n2)CC1 (mixture of isomers) [I-30, 2-[2-(Cyclopropylmethylamino)-4-pyridyl]-N-[3-(difluoromethyl)-1-[4-[[3-[3-[1-(2,6-dioxo-3-piperidyl)-3-methyl-2-oxo-benzimidazol-4-yl]propoxy]propyl-methyl-amino]methyl]cyclohexyl]pyrazol-4-yl] oxazole-4-carboxamide] | > 7.30 | synergism | 7.00 to 7.30 | causes tumor regression | synergistic in vivo tumor growth inhibition | inhibits in vivo tumor growth |  |  |  | 
2 | CN(C[C@H]1CC[C@H](n2cc(NC(=O)c3coc(-c4ccnc(NCC5CC5)c4)n3)c(C(F)F)n2)CC1)C1CCN(Cc2cccc3c2n(C)c(=O)n3C2CCC(=O)NC2=O)CC1 (some centres unmarked) [I-75, 2-(2-((cyclopropylmethyl)amino)pyridin-4-yl)-N-(3-(difluoromethyl)-1-((1r,4r)-4-(((1-((1-(2,6-dioxopiperidin-3-yl)-3-methyl-2-oxo-2,3-dihydro-1H-benzo[d]imidazol-4-yl)methyl)piperidin-4-yl)(methyl)amino)methyl)cyclohexyl)-1H-pyrazol-4-yl)oxazole-4-carboxamide] |  |  | > 7.30 |  |  |  | 50 to 100 | 7.96 | 7.96 | dose-dependent antitumor activity
